Data from patent US20070184175A1, “CONTINUOUS PRODUCTION OF CEREAL FLOUR AND WHOLE-CEREAL FLOUR FOR GRAIN-BASED FOODS, USING A LOW-MOISTURE PRECOOKING” (priority 2005, published 2007).

How the values were obtained:
[1] = Davalos et al. (2004); cited from earlier work
[2] = design: concentration or dose not given beside the values; conditions: Kikuzaki et al. (2002); cited from earlier work
[3] = concentration of Trolox solution with equivalent antioxidant capacity to a 1 mM concentration of the compound; cited from earlier work
[4] = ingestion or topical applications; cited from earlier work
[5] = ABTS radical scavenging assay; format: biochemical; conditions: Intasa-Chromadex analytical test report, 2006; gallic as positive-control
Experimental: Kikuzaki et al. (2002) previously published the DPPH radical-scavenging and increasing inhibition effects of ferulic, oryzanol (steryl-ferulate), BHT, α-tocopherol (Trolox) and gallic acid (27%<21%<29%<42%<76%). A TEAC test was defined as the concentration of Trolox solution with equivalent antioxidant capacity to a 1 mM concentration of the compound (Rice-Evans et al. 1996). Similar increasing values were found for α-tocopherol (Trolox), caffeic, ferulic and gallic acid (1.0<1.3<1.9<3.0). It also reflects the ability of hydrogen-donating antioxidants to scavenge the ABTS-radical). However, Davalos et al. (2004) used a different ORAC-FL (Oxygen radical absorbance capacity) test which described the μmol trolox equivalents per μmol of pure compound: BHA (synthetic), ferulic and protocatechuic (similar to gallic) with increasing values of 2.4, 4.5 and 6.7, respectively. This latter assay has been largely applied to assess free radical scavenging capacity of human plasma, proteins, DNA, pure antioxidant compounds and new antioxidants from plant and food extracts (Prior et al. 1999).

Compound | ORAC-FL [1] | DPPH radical-scavenging inhibition effect [2] | TEAC [3] | acute or chronic side effects [4] | IC50 or 50% inhibition value, ABTS radical scavenging [5]
COc1ccc(O)c(C(C)(C)C)c1 [BHA] | 2.4 μmol trolox equivalents per μmol of pure compound |  |  |  | 
Cc1cc(C(C)(C)C)c(O)c(C(C)(C)C)c1 [BHT] |  | 29% |  |  | 
O=C(O)/C=C/c1ccc(O)c(O)c1 [caffeic] |  |  | 1.3 |  | 
COc1cc(/C=C/C(=O)O)ccc1O [ferulic, ferulic acid] | 4.5 μmol trolox equivalents per μmol of pure compound | 27% | 1.9 | No acute or chronic side effects | 3.3 ppm
O=C(O)c1cc(O)c(O)c(O)c1 [gallic, gallic acid] |  | 76% | 3.0 |  | 1.5 ppm
O=C(O)c1ccc(O)c(O)c1 [protocatechuic] | 6.7 μmol trolox equivalents per μmol of pure compound |  |  |  | 
Cc1c(C)c2c(c(C)c1O)CC[C@@](C)(CCC[C@H](C)CCC[C@H](C)CCCC(C)C)O2 [α-tocopherol (Trolox), α-tocopherol] |  | 42% | 1.0 |  | 
oryzanol |  | 21% |  |  | 
